Assays:
[1] = test system: KMS11 (human myeloma cell line); assay: Cell proliferation assay (CellTiter-Glo), KMS11; assay type: cell-based; conditions: Homo sapiens, KMS-11; KMS11 cells, cell proliferation; read-out: KMS11-Luc EC50
Outline: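 EC50 derived from CellTiter-Glo luminescence after 3-day exposure at 37° C. Compound was diluted to 2× in medium and added to an equal volume of cells. KMS11 myeloma cells were plated on assay day at 2000/well in IMDM with 10% FBS and sodium pyruvate.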

[2] = target: PIM2 (Homo sapiens, UniProt Q9P1W9); assay: Pim 2 AlphaScreen assay (high ATP); assay type: biochemical; conditions: read-out: Pim2 IC50
Protocol: (§1) Pim1, Pim2, Pim3 AlphaScreen Assay Pim 1, Pim 2 & Pim 3 AlphaScreen assays using high ATP (11-125×ATP Km) were used to determine the biochemical activity of the inhibitors. The activity of Pim 1, Pim 2, & Pim 3 is measured using a homogeneous bead based system quantifying the amount of phosphorylated peptide substrate resulting from kinase-catalyzed phosphoryl transfer to a peptide substrate. Compounds to be tested are dissolved in 100% DMSO and directly distributed to a white 384-well plate at […] per well. To start the reaction, 5 μl of 100 nM Bad peptide (Biotin-AGAGRSRHSSYPAGT —OH) and ATP (concentrations described below) in assay buffer (50 mM Hepes, pH=7.5, 5 mM MgCl2, 0.05% BSA, 0.01% Tween-20, 1 mM DTT) is added to each well. This is followed by the addition of 5 μl/well of Pim 1, Pim 2 or Pim 3 kinase in assay buffer (concentrations described below). Final assay concentrations (described below) are in 2.5% DMSO. The reactions are performed for ˜2 hours, then stopped by the addition of 10 μl of 0.75 μg/ml anti-phospho Ser/Thr antibody (Cell Signaling), 10 μg/ml Protein A AlphaScreen beads (Perkin Elmer), and 10 μg/ml streptavidin coated AlphaScreen beads in stop/detection buffer (50 mM EDTA, 95 mM Tris, pH=7.5, 0.01% Tween-20). The stopped reactions are incubated overnight in the dark. The phosphorylated peptide is detected via an […] initiated chemiluminescence/fluorescence cascade using the Envision plate reader (Perkin Elmer).
(§2) IC50, the half maximal inhibitory concentration, represents the concentration of a test compound that is required for 50% inhibition of its target in vitro under the described assay conditions.

[3] = target: GSK3β (Homo sapiens, UniProt P49841); assay: GSK3β ATP depletion assay; assay type: biochemical; conditions: ATP depletion assay; read-out: GSK3b IC50
Outline: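 Kinase activity is read as ATP consumption: luciferase luminescence reports the ATP remaining once roughly half of the 2 μM ATP is used. Reaction mix: 5 nM GSK3β, 10 μM b-CREB peptide, 50 mM Tris pH 7.5, 15 mM MgCl2, 1 mM DTT, 0.1% BSA, 2.5% DMSO. Enzyme and peptide are preincubated 15 min before ATP is added.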

[4] = target: PIM3 (Homo sapiens, UniProt Q86V86); assay: Pim 3 AlphaScreen assay (high ATP); assay type: biochemical; conditions: read-out: Pim3 IC50
Protocol: as §1, §2

[5] = target: PIM1 (Homo sapiens, UniProt P11309); assay: Pim 1 AlphaScreen assay (high ATP); assay type: biochemical; conditions: read-out: Pim1 IC50
Protocol: as §1, §2

Chain of PIM1 (P11309 whole entry): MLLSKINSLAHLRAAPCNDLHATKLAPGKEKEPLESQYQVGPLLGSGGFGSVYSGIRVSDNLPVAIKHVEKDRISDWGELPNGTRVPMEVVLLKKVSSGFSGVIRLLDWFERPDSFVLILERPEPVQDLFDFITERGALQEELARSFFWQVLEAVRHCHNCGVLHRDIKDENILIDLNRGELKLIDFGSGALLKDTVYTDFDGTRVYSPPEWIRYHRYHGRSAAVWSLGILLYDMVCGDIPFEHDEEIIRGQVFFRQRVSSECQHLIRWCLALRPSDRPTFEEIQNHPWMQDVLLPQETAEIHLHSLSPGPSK
Chain of PIM2 (Q9P1W9 whole entry): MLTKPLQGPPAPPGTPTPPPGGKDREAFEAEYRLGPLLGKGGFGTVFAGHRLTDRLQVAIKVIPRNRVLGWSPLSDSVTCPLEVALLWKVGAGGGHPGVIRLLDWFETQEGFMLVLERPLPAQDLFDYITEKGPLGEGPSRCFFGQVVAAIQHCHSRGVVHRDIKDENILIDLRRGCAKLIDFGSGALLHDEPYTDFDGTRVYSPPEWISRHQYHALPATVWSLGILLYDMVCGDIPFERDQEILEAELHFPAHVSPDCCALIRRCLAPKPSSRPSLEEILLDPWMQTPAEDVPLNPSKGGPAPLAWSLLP
Chain of GSK3β (P49841 whole entry, species assumed): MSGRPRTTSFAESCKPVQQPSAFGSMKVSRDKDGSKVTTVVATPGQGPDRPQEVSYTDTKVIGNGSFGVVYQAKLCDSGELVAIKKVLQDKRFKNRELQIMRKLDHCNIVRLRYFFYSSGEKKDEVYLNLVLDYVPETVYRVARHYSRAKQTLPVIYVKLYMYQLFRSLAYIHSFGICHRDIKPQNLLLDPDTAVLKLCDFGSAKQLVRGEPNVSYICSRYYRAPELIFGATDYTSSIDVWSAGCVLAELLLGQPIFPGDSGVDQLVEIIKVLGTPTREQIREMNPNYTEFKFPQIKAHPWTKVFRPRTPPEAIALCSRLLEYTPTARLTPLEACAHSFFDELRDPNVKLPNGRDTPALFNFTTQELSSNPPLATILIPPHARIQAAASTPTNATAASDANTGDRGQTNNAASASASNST

EC50 [1] | IC50 [2] | IC50 [3] | IC50 [4] | IC50 [5] | Structure (SMILES)
1090 nM | 62.3 nM | 4250 nM |  |  | C[C@]1(O)[C@H](N)CC(c2ccncc2NC(=O)c2ccc(F)c(-c3c(F)cc(S(C)(=O)=O)cc3F)n2)O[C@@H]1C1CC1 (stereo in doubt) [Example 281, N-(4-((2S,4R,5S,6R)-4-amino-6-cyclopropyl-5-hydroxy-5-methyltetrahydro-2H-pyran-2-yl)pyridin-3-yl)-6-(2,6-difluoro-4-(methylsulfonyl)phenyl)-5-fluoropicolinamide]
690 nM | 11.5 nM | 3300 nM |  |  | CC(C)[C@@H]1C[C@H](N)C[C@H](c2ccncc2NC(=O)c2ccc(F)c(-c3c(F)cccc3F)n2)O1 [Example 300, N-(4-((2R,4S,6S)-4-amino-6-isopropyltetrahydro-2H-pyran-2-yl)pyridin-3-yl)-6-(2,6-difluorophenyl)-5-fluoropicolinamide]
760 nM | 62.7 nM |  |  |  | C[C@H]1O[C@@H](c2ccncc2NC(=O)c2ccc(F)c(-c3c(F)cc(C(=O)N(C)C)cc3F)n2)C[C@@H](N)[C@]1(C)O [Example 334, N-(4-((2R,4R,5S,6R)-4-amino-5-hydroxy-5,6-dimethyltetrahydro-2H-pyran-2-yl)pyridin-3-yl)-6-(4-(dimethylcarbamoyl)-2,6-difluorophenyl)-5-fluoropicolinamide]
940 nM | 2.1 nM |  |  |  | CC(=O)Nc1cc(F)c(-c2nc(C(=O)Nc3cnccc3[C@H]3C[C@@H](N)[C@](C)(O)[C@@H](C)O3)ccc2F)c(F)c1 [Example 338, 6-(4-acetamido-2,6-difluorophenyl)-N-(4-((2R,4R,5S,6R)-4-amino-5-hydroxy-5,6-dimethyltetrahydro-2H-pyran-2-yl)pyridin-3-yl)-5-fluoropicolinamide]
4380 nM |  | 9830 nM | 201 nM | 4.62 nM | N[C@H]1C[C@@H](c2ccncc2NC(=O)c2ccc(F)c(-c3c(F)cccc3F)n2)O[C@H]2CCC[C@H]21 [Example 223, N-(4-((2S,4S,4aS,7aS)-4-aminooctahydrocyclopenta[b]pyran-2-yl)pyridin-3-yl)-6-(2,6-difluorophenyl)-5-fluoropicolinamide]
1170 nM | 44.9 nM | 1290 nM |  |  | C[C@H]1O[C@@H](c2ccncc2NC(=O)c2ccc(F)c(-c3c(F)cc(S(C)(=O)=O)cc3F)n2)C[C@@H](N)[C@]1(C)O [Example 285, N-(4-((2R,4R,5S,6R)-4-amino-5-hydroxy-5,6-dimethyltetrahydro-2H-pyran-2-yl)pyridin-3-yl)-6-(2,6-difluoro-4-(methylsulfonyl)phenyl)-5-fluoropicolinamide]
5820 nM |  | 53.2 nM | 14.6 nM | 0.24 nM | N[C@@H]1C[C@H](c2ccncc2NC(=O)c2csc(-c3c(F)cccc3F)n2)O[C@@H]2CCC[C@H]12 [Example 231, N-(4-((2R,4R,4aR,7aR)-4-aminooctahydrocyclopenta[b]pyran-2-yl)pyridin-3-yl)-2-(2,6-difluorophenyl)thiazole-4-carboxamide]
530 nM |  | 946 nM | 1.7 nM | 0.14 nM | Nc1cc(F)c(-c2c(F)cccc2F)nc1C(=O)Nc1cnccc1[C@H]1C[C@@H](N)[C@@]2(O)CCC[C@H]2O1 [Example 216, 3-amino-N-(4-((2R,4R,4aS,7aR)-4-amino-4a-hydroxyoctahydrocyclopenta[b]pyran-2-yl)pyridin-3-yl)-6-(2,6-difluorophenyl)-5-fluoropicolinamide]
3760 nM | 27.3 nM |  |  |  | CNC(=O)c1cc(F)c(-c2nc(C(=O)Nc3cnccc3[C@H]3C[C@@H](N)[C@](C)(O)[C@@H](C)O3)ccc2F)c(F)c1 [Example 333, N-(4-((2R,4R,5S,6R)-4-amino-5-hydroxy-5,6-dimethyltetrahydro-2H-pyran-2-yl)pyridin-3-yl)-6-(2,6-difluoro-4-(methylcarbamoyl)phenyl)-5-fluoropicolinamide]
> 10000 nM | > 25000 nM |  |  |  | C[C@H]1O[C@@H](c2ccncc2NC(=O)c2ccc(F)c(N3CCS(=O)(=O)CC3)n2)C[C@@H](N)[C@]1(C)O [Example 335, N-(4-((2R,4R,5S,6R)-4-amino-5-hydroxy-5,6-dimethyltetrahydro-2H-pyran-2-yl)pyridin-3-yl)-6-(1,1-dioxidothiomorpholino)-5-fluoropicolinamide]
1350 nM | 40 nM |  |  |  | CC(C)[C@@H]1C[C@H](N)C[C@H](c2ccncc2NC(=O)c2ccc(F)c(-c3c(F)ccc(C#N)c3F)n2)O1 [Example 337, N-(4-((2R,4S,6S)-4-amino-6-isopropyltetrahydro-2H-pyran-2-yl)pyridin-3-yl)-6-(3-cyano-2,6-difluorophenyl)-5-fluoropicolinamide]
230 nM | 3.5 nM |  |  |  | CC(C)C(=O)Nc1cc(F)c(-c2nc(C(=O)Nc3cnccc3[C@H]3C[C@@H](N)[C@](C)(O)[C@@H](C)O3)ccc2F)c(F)c1 [Example 339, N-(4-((2R,4R,5S,6R)-4-amino-5-hydroxy-5,6-dimethyltetrahydro-2H-pyran-2-yl)pyridin-3-yl)-6-(2,6-difluoro-4-isobutyramidophenyl)-5-fluoropicolinamide]
1620 nM | 71.3 nM | 1580 nM |  |  | CC(C)[C@@H]1C[C@H](N)C[C@H](c2ccncc2NC(=O)c2ccc(F)c(-c3c(F)cc(S(C)(=O)=O)cc3F)n2)O1 [Example 302, N-(4-((2R,4S,6S)-4-amino-6-isopropyltetrahydro-2H-pyran-2-yl)pyridin-3-yl)-6-(2,6-difluoro-4-(methylsulfonyl)phenyl)-5-fluoropicolinamide]
180 nM | 3.9 nM |  |  |  | CC[C@H]1O[C@@H](c2ccncc2NC(=O)c2ccc(F)c(-c3c(F)cc(C(C)(C)O)cc3F)n2)C[C@@H](N)[C@@H]1O [Example 336, N-(4-((2R,4R,5S,6R)-4-amino-6-ethyl-5-hydroxytetrahydro-2H-pyran-2-yl)pyridin-3-yl)-6-(2,6-difluoro-4-(2-hydroxypropan-2-yl)phenyl)-5-fluoropicolinamide]
140 nM | 6.4 nM | 225 nM |  |  | CC1(C)C[C@H](N)C[C@@H](c2ccncc2NC(=O)c2ccc(F)c(-c3c(F)cccc3F)n2)O1 [Example 299, N-(4-((2S,4R)-4-amino-6,6-dimethyltetrahydro-2H-pyran-2-yl)pyridin-3-yl)-6-(2,6-difluorophenyl)-5-fluoropicolinamide]
310 nM | 15.3 nM | 2840 nM |  |  | CC(C)[C@H]1OC(c2ccncc2NC(=O)c2ccc(F)c(-c3c(F)cc(S(C)(=O)=O)cc3F)n2)C[C@@H](N)[C@@H]1O (stereo in doubt) [Example 305, N-(4-((2S,4R,5S,6R)-4-amino-5-hydroxy-6-isopropyltetrahydro-2H-pyran-2-yl)pyridin-3-yl)-6-(2,6-difluoro-4-(methylsulfonyl)phenyl)-5-fluoropicolinamide]
200 nM | 11.8 nM | 2250 nM |  |  | CC(C)(C)[C@H]1O[C@@H](c2ccncc2NC(=O)c2ccc(F)c(-c3c(F)cc(S(C)(=O)=O)cc3F)n2)C[C@@H](N)[C@@H]1O [Example 280, N-(4-((2R,4R,5S,6R)-4-amino-6-(tert-butyl)-5-hydroxytetrahydro-2H-pyran-2-yl)pyridin-3-yl)-6-(2,6-difluoro-4-(methylsulfonyl)phenyl)-5-fluoropicolinamide]

Source: patent publication US20130109682A1, “CYCLIC ETHER COMPOUNDS USEFUL AS KINASE INHIBITORS” (NOVARTIS AG, priority 2010, published 2013)
